Here are results for 31 compounds from US20100298300A1, “TRIAZOLOPYRAZINE COMPOUNDS USEFUL FOR THE TREATMENT OF DEGENERATIVE & INFLAMMATORY DISEASES” (priority 2006, published 2010).

Test [1] deals with MMP1 expression by activated primary synovial fibroblasts. The experiment in a line: 'MMP assay': MMP1 expression by complex trigger activated synovial fibroblasts (MMP1 ELISA). The format is cell-based. As to conditions: Homo sapiens, Fibroblast; for EC50: RASFs, complex trigger, 48 hrs, MMP1 ELISA. On the technique in general: An ELISA detects its analyte on a solid surface through an enzyme-linked reagent.

Test [2] concerns the target T1, MAPKAPK5 (Homo sapiens, UniProt Q8IW41).
T1 sequence (Q8IW41 1-471 isoform Q8IW41-2): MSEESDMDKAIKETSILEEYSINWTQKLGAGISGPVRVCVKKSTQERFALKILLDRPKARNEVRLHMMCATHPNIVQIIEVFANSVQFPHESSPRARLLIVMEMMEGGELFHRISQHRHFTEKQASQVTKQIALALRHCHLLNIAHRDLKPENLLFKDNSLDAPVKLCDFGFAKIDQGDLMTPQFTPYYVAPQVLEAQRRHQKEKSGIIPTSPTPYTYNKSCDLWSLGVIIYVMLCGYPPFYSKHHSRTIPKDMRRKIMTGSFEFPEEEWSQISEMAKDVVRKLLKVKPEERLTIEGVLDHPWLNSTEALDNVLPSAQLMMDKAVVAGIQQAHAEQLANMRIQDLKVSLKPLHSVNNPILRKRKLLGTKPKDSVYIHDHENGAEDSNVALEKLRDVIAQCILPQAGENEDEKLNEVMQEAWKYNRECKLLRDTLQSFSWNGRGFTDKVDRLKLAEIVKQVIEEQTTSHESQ
The experiment in a line: MAPKAP-K5 assay (FlashPlate kinase assay).
Description: MAPKAP-K5 reactions are performed in FlashPlate format using 0.1 or 0.2 μCi 33P-ATP; 0.6 μM ATP; 1 mU MAPKAP-K5; 3 μM MAPKAP-K5 peptide substrate, incubated at room temperature for 30 minutes.
The MAPKAP-K5 kinase reaction is performed in a 384 well polypropylene plate (Matrix Technologies) and then transferred to a streptavidin-coated 384 well flashplate (Perkin-Elmer).
To wells containing 2 μL test compound or standard inhibitor, 13 μL Enzyme mix or diluent are added using a Hydra (Robbins Scientific).
Reactions are started by addition of 10 μL of [2,5×] substrate cocktail using a Multidrop (Thermo-Labsystems), to give final concentrations in the assay of:
Plates are incubated at room temperature for 30 minutes.
Reactions are terminated by the addition of 25 μL EDTA (50 mM) to each well using a Micro-fill (Biotek).
Reactions are transferred to a streptavidin-coated flashplate using a Zymark robotic system. Plates are incubated for 60 minutes at room temperature.
All wells are washed 3 times with 100 μl phosphate buffered saline using a Tecan plate washer.
Radioactivity is determined by scintillation counting of the flashplate (empty wells) on a Packard TopCount.
Enzyme Mix: • Enzyme • 50 mM Tris Hcl (pH 7.5) • 0.1 mM EGTA • 2 mM DTT • 1 mg/mL BSA
Reaction Buffer: • 50 mM Tris Hcl (pH 7.5) • 0.1 mM EGTA • 10 mM Magnesium acetate • 2 mM DTT

On to `CC(C)N1CCN(c2ccc(Nc3ncc(-c4cn[nH]c4)n4ncnc34)cn2)CC1` [Compound 43, [6-(4-Isopropylpiperazin-1-yl)pyridin-3-yl]-[5-(1H-pyrazol-4-yl)-[1,2,4]triazolo[1,5-a]pyrazin-8-yl]amine], for which the EC50 in test [1] (Table 3) is over 1000 nM. In test [2], this compound displayed an IC50 of over 1000 nM.
`CC(C)N1CCN(c2ccc(Nc3ncc(-c4csc(C(N)=O)c4)n4ncnc34)cn2)CC1` [Compound 55, 4-{8-[6-(4-Isopropylpiperazin-1-yl)pyridin-3-ylamino]-[1,2,4]triazolo[1,5-a]pyrazin-5-yl}thiophene-2-carboxylic acid amide] gave an EC50 in test [1] (Table 3) of 101 to 500 nM. For the same compound, the IC50 in test [2] lay within 101 to 500 nM.
`NC(=O)c1cccc2c(-c3cnc(Nc4ccc(N5CCOCC5)cc4)c4ncnn34)csc12` [Compound 80, 3-[8-(4-Morpholin-4-ylphenylamino)-[1,2,4]triazolo[1,5-a]pyrazin-5-yl]-benzo[b]thiophene-7-carboxylic acid amide]: the EC50 in test [1] (Table 3) lay in the range of 101 to 500 nM. The compound further displayed an IC50 in test [2] of over 1000 nM.
Taken in the same sequence, the figures for `OCc1cc(-c2cnc(Nc3ccc(N4CCOCC4)cc3)c3ncnn23)ccn1` [Compound 82] were over 1000 nM and over 1000 nM.
The matching figures for `CC(C)N1CCN(c2ccc(Nc3ncc(-c4ccnc(CO)c4)n4ncnc34)cc2)CC1` [Compound 83, (4-{8-[4-(4-Isopropylpiperazin-1-yl)-phenylamino]-[1,2,4]triazolo[1,5-a]pyrazin-5-yl}pyridin-2-yl)methanol]: over 1000 nM and over 1000 nM.
Consider `CC(C)N1CCN(c2ccc(Nc3ncc(-c4coc(C(N)=O)c4)n4ncnc34)cc2)CC1` [Compound 88, 4-(8-(4-(4-Isopropylpiperazin-1-yl)phenylamino)-[1,2,4]triazolo[1,5-a]pyrazin-5-yl)furan-2-carboxamide], for which the EC50 in test [1] (Table 3) is 501 to 1000 nM. In addition, the IC50 in test [2] was in the range of 1 to 100 nM.
Taken in the same sequence, the figures for `c1nc2c(Nc3ccc(N4CCOCC4)cc3)ncc(-c3ccc4cn[nH]c4c3)n2n1` [Compound 93] were over 1000 nM and over 1000 nM.
The matching figures for `Cc1sc(C(N)=O)cc1-c1cnc(Nc2ccc(N3CCN(C(C)C)CC3)cc2)c2ncnn12` [Compound 95]: over 1000 nM and over 1000 nM.
The matching figures for `Cc1sc(C(N)=O)cc1-c1cnc(Nc2ccc(N3CCN(C(C)C)CC3)nc2)c2ncnn12` [Compound 96]: over 1000 nM and over 1000 nM.
For `CC(C)N1CCN(c2ccc(Nc3ncc(-c4cccc5c4CNC5=O)n4ncnc34)cc2)CC1` [Compound 97], in test [1] (Table 3), the concentration for a half-maximal effect (EC50) was over 1000 nM. This compound returned an IC50 in test [2] of over 1000 nM.
`CC(C)N1CCN(c2ccc(Nc3ncc(-c4cccc5c4CNC5=O)n4ncnc34)cn2)CC1` [Compound 98] came in with an EC50 in test [1] (Table 3) of over 1000 nM. In test [2], this compound came in with a half-inhibitory concentration (IC50) of over 1000 nM.
`O=C1CNCCN1c1ccc(Nc2ncc(-c3cn[nH]c3)n3ncnc23)cc1` [Compound 100, 1-(4-(5-(1H-Pyrazol-4-yl)-[1,2,4]triazolo[1,5-a]pyrazin-8-ylamino)phenyl)piperazin-2-one]: the EC50 in test [1] (Table 3) is over 1000 nM. In addition, the IC50 in test [2] was over 1000 nM.
On to `CC(C)N1CCN(c2ccc(Nc3ncc(-c4ccc5cn[nH]c5c4)n4ncnc34)cc2)CC1` [Compound 106], for which the IC50 in test [2] is over 1000 nM.
On to `CC(C)N1CCN(c2ccc(Nc3ncc(-c4ccc5c(c4)C(=O)NC5)n4ncnc34)cc2)CC1` [Compound 109], for which the EC50 in test [1] (Table 3) was over 1000 nM. Moreover, the IC50 in test [2] was over 1000 nM.
On to `O=C1NCc2oc(-c3cnc(Nc4ccc(N5CCOCC5)cc4)c4ncnn34)cc21` [Compound 111], for which the 50% effective concentration (EC50) in test [1] (Table 3) is over 1000 nM. Besides, in test [2], the IC50 lay in the range of 101 to 500 nM.
The matching figures for `CC(C)N1CCN(c2ccc(Nc3ncc(-c4ccc5c(c4)CNC5=O)n4ncnc34)cc2)C(=O)C1` [Compound 112, 5-(8-(4-(4-Isopropyl-2-oxopiperazin-1-yl)phenylamino)-[1,2,4]triazolo[1,5-a]pyrazin-5-yl)isoindolin-1-one]: over 1000 nM and 101 to 500 nM.
`CC(C)N1CCN(c2ccc(Nc3ncc(-c4ccc5c(c4)C(C)(C)NC5=O)n4ncnc34)cc2)CC1` [Compound 114, 5-{8-[4-(4-Isopropylpiperazin-1-yl)-phenylamino]-[1,2,4]triazolo[1,5-a]pyrazin-5-yl}-3,3-dimethyl-2,3-dihydroisoindol-1-one] returned an EC50 in test [1] (Table 3) of over 1000 nM. The same compound gave an IC50 in test [2] of over 1000 nM.
On to `O=C(NCc1cccnc1)c1ccc(Nc2ncc(-c3cn[nH]c3)n3ncnc23)cc1` [Compound 118, 4-(5-(1H-Pyrazol-4-yl)-[1,2,4]triazolo[1,5-a]pyrazin-8-ylamino)-N-(pyridin-3-ylmethyl)benzamide], for which the EC50 in test [1] (Table 4) was over 1000 nM. The half-maximal inhibitory concentration (IC50) in test [2] was over 1000 nM.
Compound `O=C(NCc1cccnc1)c1ccc(Nc2ncc(-c3cc[nH]c(=O)c3)n3ncnc23)cc1` [Compound 119, 4-(5-(2-Oxo-1,2-dihydropyridin-4-yl)-[1,2,4]triazolo[1,5-a]pyrazin-8-ylamino)-N-(pyridin-3-ylmethyl)benzamide] came in with an EC50 in test [1] (Table 4) of over 1000 nM. This compound registered a concentration for half-maximal inhibition (IC50) in test [2] of over 1000 nM.
Compound `COc1cc(Nc2ncc(-c3cn[nH]c3)n3ncnc23)ccc1C(=O)NCc1ccc(C)nc1` [Compound 120, 2-Methoxy-N-(6-methylpyridin-3-yl)methyl-4-[5-(1H-pyrazol-4-yl)-[1,2,4]triazolo[1,5-a]pyrazin-8-ylamino]-benzamide] displayed an EC50 in test [1] (Table 4) of over 1000 nM. In test [2], this compound showed an IC50 of over 1000 nM.
For `COc1cc(Nc2ncc(-c3csc(C(N)=O)c3)n3ncnc23)ccc1C(=O)NCc1ccc(C)nc1` [Compound 121], the EC50 in test [1] (Table 4) was over 1000 nM. This compound also displayed an IC50 in test [2] of over 1000 nM.
In turn, `O=C(Nc1ccc(Nc2ncc(-c3cn[nH]c3)n3ncnc23)cn1)c1ccccc1` [Compound 135] yielded an IC50 in test [2] of over 1000 nM.
In test [2], `O=C(c1ccc(Nc2ncc(-c3cn[nH]c3)n3ncnc23)cc1)N1CCN(Cc2ccc(F)cc2)CC1` [Compound 144] showed an IC50 of 501 to 1000 nM.
As to `CCN1CCC[C@H]1CNC(=O)c1ccc(Nc2ncc(-c3cn[nH]c3)n3ncnc23)cc1` [Compound 163], the EC50 in test [1] (Table 4) was over 1000 nM.
With `CN(C)Cc1cc(Nc2ncc(-c3ccc4c(c3)CNC4=O)n3ncnc23)ccc1N1CCOCC1` [Compound 175], the concentration for a half-maximal effect (EC50) in test [1] (Table 3) is over 1000 nM.
On to `CC(C)N1CCC(Nc2ncc(-c3ccc4c(c3)CNC4=O)n3ncnc23)CC1` [Compound 186], for which the IC50 in test [2] was over 1000 nM.
On the same count and under the same terms, for `CC(C)N1CCCN(c2ccc(Nc3ncc(-c4cn[nH]c4)n4ncnc34)cc2)CC1` [Compound 187] the value was over 1000 nM; for `CC(C)N1CCCN(c2ccc(Nc3ncc(-c4ccc5c(c4)CNC5=O)n4ncnc34)cc2)CC1` [Compound 188], 1 to 100 nM.
Same read-out and setting: with `COCCN1CCC(c2ccc(Nc3ncc(-c4ccc5c(c4)CNC5=O)n4ncnc34)cc2)CC1` [Compound 189] the figure was 1 to 100 nM; with `O=C(N[C@H]1CCN(Cc2ccccc2)C1)c1ccc(Nc2ncc(-c3cn[nH]c3)n3ncnc23)cc1` [Compound 191], over 1000 nM.
Consider `C[C@@H]1C[C@H]2[C@@H]3CCC4=CC(=O)C=C[C@]4(C)[C@@]3(F)[C@@H](O)C[C@]2(C)[C@@]1(O)C(=O)CO` [dexamethasone, reference compound], for which the IC50 in test [1] (complex trigger activated SFs, 48 hrs after treatment, FIG. 3, read-out: IC50 of reduction of MMP1 expression by SFs) was about 1 nM.

In general, EC50 refers to the concentration that produces a half-maximal response. Lower therefore signals greater potency. By IC50 is commonly meant the concentration that inhibits the measured activity by half.
